Results on 29 molecules are retold here after ChEMBL document CHEMBL1126296, “Orally active aldose reductase inhibitors: indazoleacetic, oxopyridazineacetic, and oxopyridopyridazineacetic acid derivatives” (J Med Chem, 1992).

The target in assay [1] is Aldo-keto reductase family 1 member B1 (Homo sapiens, UniProt P15121). Description: Inhibitory activity against aldose reductase isolated from human placenta.
The subject of assay [2] is Rattus norvegicus. Description: In vivo inhibition of sorbitol accumulation in sciatic nerve and lens of diabetic rat at a dose of 25 mg/kg. The assay is classed as functional.
Assay [3] deals with Rattus norvegicus. Description: In vivo inhibition of sorbitol accumulation in sciatic nerve and lens of diabetic rat at a dose of 25 mg/kg; NS=not significant. Type of assay: functional, organism-based. More on the design: dose 25 mg/kg.
Assay [4] deals with Rattus norvegicus. Description: In vivo inhibition of sorbitol accumulation in sciatic nerve and lens of diabetic rat at a dose of 10 mg/kg. The assay is classed as functional.
Assay [5] relates to Rattus norvegicus. Description: In vivo inhibition of sorbitol accumulation in sciatic nerve and lens of diabetic rat at a dose of 10 mg/kg; NS=not significant. Type of assay: functional, organism-based. Also noted: dose 10 mg/kg.
Assay [6] deals with Rattus norvegicus. Description: In vivo inhibition of sorbitol accumulation in sciatic nerve and lens of diabetic rat at a dose of 100 mg/kg. Type of assay: functional.

Calls of active or inactive are those of the source. The calls are words filed in the database; no cut-off is given here.

As for `O=C(O)Cc1nn(Cc2nc3cc(F)cc(F)c3s2)c2ccccc12`, inhibition in assay [1] was half-maximal at 30 nM (IC50). The inhibition in vivo (commonly the drop in the measured response relative to a control, in per cent) at 25 mg/kg in assay [2] was found to be 61%. On to `O=C(O)Cc1nn(Cc2ccc(Br)cc2F)c(=O)c2c1CCCC2`, for which the IC50 – broadly, the midpoint of a concentration-inhibition curve – in assay [1] came out at 32 nM. In assay [2], testing at 25 mg/kg gave an inhibition in vivo of 87%. The molecule `O=C(O)Cc1nn(Cc2ccc(Br)cc2F)c(=O)c2cc3ccccc3cc12` had an IC50 in assay [1] of 420 nM. This lies in the sub-micromolar range. On the same count and under the same terms, the value for `O=C(O)Cc1nn(Cc2nc3cc(F)cc(F)c3s2)c(=O)c2c1CCCC2` was 4 nM. With `O=C(O)Cc1nn(Cc2nc3ccccc3s2)c(=O)c2ccccc12`, at 25 mg/kg the inhibition in vivo in assay [2] was 67%. For `O=C(O)Cc1nn(Cc2nc3cc(C(F)(F)F)ccc3s2)c(=O)c2cccnc12`, the IC50 in assay [1] is 41 nM. In assay [2], this molecule returned an inhibition in vivo at 25 mg/kg of 74%. On to `O=C(O)Cc1ccc(=O)n(Cc2nc3cc(C(F)(F)F)ccc3s2)n1`, for which, in assay [3], the inhibition entry was “inactive”. The same molecule had an IC50 in assay [1] of 340 nM. Regarding `Cc1cc(=O)n(Cc2nc3cc(C(F)(F)F)ccc3s2)nc1CC(=O)O`, the inhibition entry in assay [3] was “inactive”. Moreover, the concentration for half-maximal inhibition (IC50) in assay [1] was determined as 18 nM. Take `O=C(O)Cc1ccc(=O)n(Cc2nc3cc(F)cc(F)c3s2)n1`: in assay [1], the IC50 is less than 10 nM. This molecule also showed an inhibition in vivo at 25 mg/kg in assay [2] of 32%. For `O=C(O)Cc1nn(Cc2ccc(Br)cc2F)c2ccccc12`, in assay [1], the midpoint of inhibition, the IC50, lay at 6200 nM. Take `O=C(O)Cc1nn(Cc2nc3cc(F)cc(F)c3s2)c2ccc(Cl)cc12`: the IC50 in assay [1] is 110 nM. The molecule further displayed an inhibition in vivo at 25 mg/kg in assay [2] of 69%. Molecule `Cc1c(CC(=O)O)nn(Cc2nc(-c3cccc(F)c3F)no2)c(=O)c1C` came in with an inhibition in vivo at 10 mg/kg in assay [4] of 26%. This molecule also had an IC50 in assay [1] of 3.3 nM.

On to `O=C(O)Cc1nn(Cc2ccc(Br)cc2F)c(=O)c2ncccc12`, for which, in assay [3], the inhibition entry was “inactive”. The half-inhibitory concentration (IC50) in assay [1] is 760 nM. As to `O=C(O)Cc1nn(Cc2nc3ccccc3o2)c2ccc(Cl)cc12`, in assay [1], the IC50 came out at 100 nM.

Consider `O=C(O)Cc1nn(Cc2nc3cc(C(F)(F)F)ccc3s2)c(=O)c2ncccc12`, for which the inhibition result in assay [5] is “inactive”. Also, half-maximal inhibition in assay [1] (IC50) required 2.1 nM. The molecule `Cc1c(CC(=O)O)nn(Cc2nc3cc(F)cc(F)c3s2)c(=O)c1C` gave an inhibition in vivo at 10 mg/kg in assay [4] of 76%. Besides, the IC50 in assay [1] was 5 nM. On to `Cc1c(CC(=O)O)nn(Cc2nc3cc(C(F)(F)F)ccc3s2)c(=O)c1C`, for which, in assay [1], half-maximal inhibition (IC50) required 16 nM. This molecule had an inhibition in vivo at 25 mg/kg in assay [2] of 81%. Taken in the same sequence, the figures for `O=C(O)Cc1nn(Cc2nc3cc(Br)ccc3s2)c2ccc(Cl)cc12` were 65 nM and 56%. For `O=C(O)Cc1nn(Cc2nc3cc(C(F)(F)F)ccc3s2)c2ccccc12`, in that order: 33 nM and 59%. Taken in the same sequence, the figures for `O=C(O)Cc1nn(Cc2nc3cc(F)cc(F)c3s2)c(=O)c2cccnc12` were 26 nM and 68%.

With `O=C(O)Cc1nn(Cc2nc3ccccc3s2)c2ccc(Cl)cc12`, the inhibition result in assay [5] was “inactive”. The molecule further gave an IC50 in assay [1] of 58 nM. In assay [1], `O=C(O)Cc1nn(Cc2nc3cc(F)ccc3s2)c(=O)c2cccnc12` had a 50% inhibitory concentration (IC50) of less than 10 nM. The molecule further yielded an inhibition in vivo at 25 mg/kg in assay [2] of 64%. For `O=C(O)Cc1nn(Cc2nc3cc(F)ccc3s2)c2ccc(Cl)cc12`, in that order: 4.6 nM and 34%. In assay [6], `O=C(O)Cc1nn(Cc2nc3ccccc3s2)c(=O)c2cc3ccccc3cc12` had an inhibition in vivo at 100 mg/kg of 48%. Besides, in assay [1], the IC50 came out at 46 nM. Molecule `O=C(O)Cc1nn(Cc2nc3cc(C(F)(F)F)ccc3s2)c(=O)c2ccccc12` [ZOPOLRESTAT] gave an inhibition in vivo at 10 mg/kg in assay [4] of 80%. As for `O=C(O)Cc1nn(Cc2nc3cc(C(F)(F)F)ccc3s2)c2ccc(Cl)cc12`, the inhibition result in assay [3] is “inactive”. Besides, half-maximal inhibition in assay [1] (IC50) required 35 nM. `O=C(O)Cc1nn(Cc2nc3ccccc3s2)c2ccccc12` returned an inhibition in vivo at 100 mg/kg in assay [6] of 77%. The IC50 in assay [1] was 680 nM. The molecule also came in with an inhibition in vivo at 25 mg/kg in assay [2] of 52%. `O=C(O)Cc1nn(Cc2nc3cc(C(F)(F)F)ccc3s2)c(=O)c2c1CCCC2`: in assay [4], the inhibition in vivo at 10 mg/kg stood at 61%. In addition, the IC50 in assay [1] came out at 5.2 nM. Further, the inhibition in vivo at 25 mg/kg in assay [2] came out at 89%. Consider `Cc1c(CC(=O)O)nn(Cc2ccc(Br)cc2F)c(=O)c1C`, for which, in assay [5], the inhibition result was “inactive”. Also, half-maximal inhibition in assay [1] (IC50) required 290 nM.
